Calls of active or inactive are those of the source. No cut-off for these calls is given here.

For one data set, the system named is MCF7. Nature of the data set: Antiproliferative activity against human MCF7 cells assessed as reduction in cell viability after 72 hrs by MTT assay. The format is functional, cell-based. For orientation: Tetrazolium assays rely on reduction of a dye to a coloured formazan, in cell work by metabolically active cells.
For data set [1], the system named is MDA-MB-231. In words: Effect on EGFR expression in human MDA-MB-231 cells up to 50 uM measured after 48 hrs by Westernblot analysis. The format is functional, cell-based.
The target in data set [2] is Transcription factor p65 (Homo sapiens) (UniProt Q04206). In words: Down regulation of NFkappaB p65 phosphorylation in human MDA-MB-231 cells up to 50 uM measured after 48 hrs by Western blot analysis. The format is cell-based. (In western blotting, separated proteins are transferred to a membrane and probed.)
Data set [3] has as its system MDA-MB-231. Nature of the data set: Antiproliferative activity against human MDA-MB-231 cells assessed as reduction in cell viability after 72 hrs by MTT assay. Particulars: MDA-MB-231, 72 h. The format is functional, cell-based.
Data set [4] addresses Serine/threonine-protein kinase mTOR (Homo sapiens) (UniProt P42345). In words: Inhibition of mTOR phosphorylation in human MDA-MB-231 cells up to 50 uM measured after 48 hrs by Western blot analysis. The format is cell-based.
A short description of data set [5]: Effect on RAS/RAF/MEK/ERK pathway in human MDA-MB-231 cells assessed as increase in ERK1/2 phosphorylation up to 50 uM measured after 48 hrs by Western blot analysis. The format is cell-based.
Data set [6] deals with MDA-MB-231. In words: Down regulation of slug levels in human MDA-MB-231 cells up to 50 uM measured after 48 hrs by Westernblot analysis. The format is functional, cell-based.
Data set [7] concerns MDA-MB-231. Nature of the data set: Downregulation of cyclin-D1 expression in human MDA-MB-231 cells up to 50 uM measured after 48 hrs by Westernblot analysis. The format is functional, cell-based.
The subject of data set [8] is MCF-10A. Nature of the data set: Cytotoxicity against human MCF10A assessed as reduction in cell viability at 25 uM after 72 hrs by MTT assay. The format is cell-based.
For data set [9], the system named is MCF-10A. In words: Cytotoxicity against human MCF10A assessed as reduction in cell viability up to 12 uM after 72 hrs by MTT assay. The format is cell-based.
Setting [10] is: Homo sapiens, MCF7, 72 h, read-out: IC50.

Sequence of Transcription factor p65 (Homo sapiens) (Q04206 whole entry): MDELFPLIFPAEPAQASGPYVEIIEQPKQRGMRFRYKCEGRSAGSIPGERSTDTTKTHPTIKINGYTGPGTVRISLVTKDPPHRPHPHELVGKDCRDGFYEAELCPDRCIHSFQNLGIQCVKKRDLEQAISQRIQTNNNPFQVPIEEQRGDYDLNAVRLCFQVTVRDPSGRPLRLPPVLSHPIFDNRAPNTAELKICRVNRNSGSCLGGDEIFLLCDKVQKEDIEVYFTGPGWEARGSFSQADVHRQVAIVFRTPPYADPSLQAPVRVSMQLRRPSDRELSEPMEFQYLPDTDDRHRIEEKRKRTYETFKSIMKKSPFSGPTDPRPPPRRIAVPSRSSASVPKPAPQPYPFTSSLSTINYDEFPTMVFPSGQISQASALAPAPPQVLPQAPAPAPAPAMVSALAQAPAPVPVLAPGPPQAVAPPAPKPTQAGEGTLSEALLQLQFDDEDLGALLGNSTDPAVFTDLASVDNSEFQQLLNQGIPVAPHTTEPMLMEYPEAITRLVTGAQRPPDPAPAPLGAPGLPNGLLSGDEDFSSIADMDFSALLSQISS

By IC50 is commonly meant the concentration that gives 50% inhibition. Take `COc1ccc2c(c1)CC[C@@H]1[C@@H]2CC[C@@]2(C)[C@H]1CC[C@]2(C/C(=N\S(=O)(=O)c1ccc(C)cc1)OC1CCCCC1)OC`: in the data set with MCF7 (setting [10]), the IC50 was 20 µM.

Consider `CCO/C(C[C@]1(O)CC[C@H]2[C@@H]3CCc4cc(OCc5ccccc5)ccc4[C@H]3CC[C@@]21C)=N/S(=O)(=O)c1ccc(C)cc1`, for which the IC50 entry in the data set on MCF7 (mcf7) is listed as “Not Active”.

Turning to `CCO/C(C[C@]1(O)CC[C@H]2[C@@H]3CCc4cc(O)ccc4[C@H]3CC[C@@]21C)=N/S(=O)(=O)c1ccc(C)cc1`, the IC50 in the data set with MCF7 (setting [10]) was determined as 15.3 µM.

Consider `CCO/C(CC1=CC[C@H]2[C@@H]3CCc4cc(OC(C)=O)ccc4[C@H]3CC[C@]12C)=N/S(=O)(=O)c1ccc(C)cc1`, for which, in the data set with MCF7 (setting [10]), the IC50 is 5.6 µM.

Consider `CCO/C(C[C@]1(O)CC[C@H]2[C@@H]3CCC4=CC(=O)CC[C@]4(C)[C@H]3CC[C@@]21C)=N/S(=O)(=O)c1ccc(C)cc1`, for which the IC50 in the data set with MCF7 (setting [10]) turned out to be 9.9 µM.

Consider `COc1ccc2c(c1)CC[C@@H]1[C@@H]2CC[C@@]2(C)[C@H]1CC[C@]2(C/C(=N\S(=O)(=O)c1ccc(C)cc1)OCCC(C)C)OC`, for which the IC50 with MCF7 (setting [10]) came to 21.7 µM.

`COc1ccc2c(c1)CC[C@@H]1[C@@H]2CC[C@@]2(C)[C@H]1CC[C@]2(C/C(=N\S(=O)(=O)c1ccc(C)cc1)OC(C)C)OC`: the outcome in the data set on MDA-MB-231 [1] was inactive. The result (in data set [2]; in data set [5]; in the data set with MDA-MB-231 [6]; in the data set on MDA-MB-231 [7]) was Active. Besides, the IC50 amounted to 11.3 µM in the data set with MDA-MB-231 [3] and 4.3 µM in the data set with MCF7 (setting [10]). Further, the inhibition entry in [4] is “inactive”. The Activity result with MCF-10A [8] is “Toxic”; in the data set on MCF-10A [9] it was “Non-Toxic”.

As to `CCCO/C(C[C@]1(OC)CC[C@H]2[C@@H]3CCc4cc(OC)ccc4[C@H]3CC[C@@]21C)=N/S(=O)(=O)c1ccc(C)cc1`, the IC50 in the data set with MCF7 (setting [10]) was found to be 4.5 µM.

Consider `CCCCO/C(C[C@]1(OC)CC[C@H]2[C@@H]3CCc4cc(OC)ccc4[C@H]3CC[C@@]21C)=N/S(=O)(=O)c1ccc(C)cc1`, for which the concentration for half-maximal inhibition (IC50) in the data set with MCF7 (setting [10]) came to 10.5 µM.

Take `CCCO/C(C[C@]1(O)CC[C@H]2[C@@H]3CCc4cc(OC(C)=O)ccc4[C@H]3CC[C@@]21C)=N/S(=O)(=O)c1ccc(C)cc1`: the half-inhibitory concentration (IC50) in the data set with MCF7 (setting [10]) came to 17.9 µM.

`COc1ccc2c(c1)CC[C@@H]1[C@@H]2CC[C@@]2(C)[C@H]1CC[C@]2(C/C(=N\S(=O)(=O)c1ccc(C)cc1)OCCCCl)OC`: the half-inhibitory concentration (IC50) with MCF7 (setting [10]) was found to be 11.4 µM.

As for `CCO/C(CC1=CC[C@H]2[C@@H]3CCc4cc(OC)ccc4[C@H]3CC[C@]12C)=N/S(=O)(=O)c1ccc(C)cc1`, in the data set on MCF7 (setting [10]), the concentration for half-maximal inhibition (IC50) worked out at 9.5 µM.

On to `CCO/C(C[C@]1(O)CC[C@H]2[C@@H]3CCc4cc(OC(C)=O)ccc4[C@H]3CC[C@@]21C)=N/S(=O)(=O)c1ccc(C)cc1`, for which the half-inhibitory concentration (IC50) in the data set on MCF7 (setting [10]) worked out at 12.2 µM.

In the case of `COc1ccc2c(c1)CC[C@@H]1[C@@H]2CC[C@@]2(C)[C@H]1CC[C@]2(C/C(=N\S(=O)(=O)c1ccc(C)cc1)OCC(Cl)(Cl)Cl)OC`, the IC50 in the data set with MCF7 (setting [10]) was 22.2 µM.

With `CCCCCCCCCCCCO/C(C[C@]1(OC)CC[C@H]2[C@@H]3CCc4cc(OC)ccc4[C@H]3CC[C@@]21C)=N/S(=O)(=O)c1ccc(C)cc1`, in the data set on MCF7 (mcf7), the concentration for half-maximal inhibition (IC50) entry is “Not Active”.

As for `CCCCCCCO/C(C[C@]1(OC)CC[C@H]2[C@@H]3CCc4cc(OC)ccc4[C@H]3CC[C@@]21C)=N/S(=O)(=O)c1ccc(C)cc1`, in the data set with MCF7 (mcf7), the IC50 entry is “Not Active”.

As for `CCCCCCO/C(C[C@]1(OC)CC[C@H]2[C@@H]3CCc4cc(OC)ccc4[C@H]3CC[C@@]21C)=N/S(=O)(=O)c1ccc(C)cc1`, the IC50 entry with MCF7 (mcf7) was “Not Active”.

In the case of `CCO/C(C[C@]1(O)CC[C@H]2[C@@H]3CCc4cc(OS(=O)(=O)c5ccc(C)cc5)ccc4[C@H]3CC[C@@]21C)=N/S(=O)(=O)c1ccc(C)cc1`, the IC50 result with MCF7 (mcf7) is reported as “Not Active”.

Take `CCO/C(C[C@]1(OC)CC[C@H]2[C@@H]3CCc4cc(OC)ccc4[C@H]3CC[C@@]21C)=N/S(=O)(=O)c1ccc(C)cc1`: in the data set on MCF7 (setting [10]), the IC50 worked out at 7 µM.

Consider `COc1ccc2c(c1)CC[C@@H]1[C@@H]2CC[C@@]2(C)[C@H]1CC[C@@]2(O)CC(=O)NS(=O)(=O)c1ccc(C)cc1`, for which the IC50 result in the data set on MCF7 (mcf7) is given as “Not Active”.

Regarding `COc1ccc2c(c1)CC[C@@H]1[C@@H]2CC[C@@]2(C)[C@H]1CC[C@]2(C/C(=N\S(=O)(=O)c1ccc(C)cc1)OCC(C)C)OC`, the 50% inhibitory concentration (IC50) in the data set with MCF7 (setting [10]) is 8.5 µM.

Take `Cc1ccc(S(=O)(=O)NC(=O)C[C@]2(O)CC[C@H]3[C@@H]4CCc5cc(O)ccc5[C@H]4CC[C@@]32C)cc1`: the half-inhibitory concentration (IC50) result with MCF7 (mcf7) is given as “Not Active”.

With `CCCO/C(C[C@]1(O)CC[C@H]2[C@@H]3CCc4cc(OC)ccc4[C@H]3CC[C@@]21C)=N/S(=O)(=O)c1ccc(C)cc1`, in the data set on MCF7 (setting [10]), the concentration for half-maximal inhibition (IC50) turned out to be 15.5 µM.

As for `CCO/C(C[C@]1(O)CC[C@H]2[C@@H]3CCc4cc(OC)ccc4[C@H]3CC[C@@]21C)=N/S(=O)(=O)c1ccc(C)cc1`, in the data set with MCF7 (setting [10]), the 50% inhibitory concentration (IC50) is 11.8 µM.

For `CCCO/C(C[C@]1(O)CC[C@H]2[C@@H]3CCC4=CC(=O)CC[C@]4(C)[C@H]3CC[C@@]21C)=N/S(=O)(=O)c1ccc(C)cc1`, the IC50 in the data set on MCF7 (setting [10]) was determined as 22.4 µM.

For the origin of these results see ChEMBL document CHEMBL4351024, “Steroidal N-Sulfonylimidates: Synthesis and biological evaluation in breast cancer cells” (Eur J Med Chem, 2019).
